Laboratory results as given in PMC12921483 (Frontiers in Pharmacology, 2026).
Like-named read-outs stand apart in the source and are kept apart here.

What was measured:
Format in all cases: cell-based
[1] = test system: SiHa; experiment: CCK-8 antiproliferative assay, SiHa; conditions: read-out: IC50 SiHa
Procedure: (§1) Cells were seeded into 96-well plates at a density of 2.5–6 × 10^3 cells per well and incubated for 24 h. They were then treated with a series of eight concentrations of the test compounds (e.g., from 100 to 0.78125 μM or from 2 to 0.015625 μM, prepared by twofold serial dilution) for 48 h. After treatment, the medium was removed and replaced with 100 μL of 10% CCK-8 solution (diluted in fresh medium). Following incubation in the dark for 1–2 h, absorbance at 450 nm was measured using a microplate reader. The half-maximal inhibitory concentration (IC50) was calculated using SPSS software. Each concentration was tested in six replicate wells, and the entire experiment was performed in three independent biological replicates.
(§2) IC50 values were derived by nonlinear regression (SPSS 26). All data are presented as mean ± SD from at least three independent biological replicates (n ≥ 3). Differences were assessed by Student’s t-test (two groups) or one-way ANOVA with Tukey’s post hoc test (multiple groups). […] Statistical significance was set at p < 0.05.

[2] = test system: H8; experiment: CCK-8 cytotoxicity, normal cervical epithelial cells H8; conditions: for IC50: read-out: IC50 H8; for toxicity to H8 cells in words: normal cervical epithelial cells
Procedure: as §1, §2

[3] = test system: HeLa; experiment: CCK-8 antiproliferative assay, HeLa
Procedure: as §1, §2

[4] = test system: C-33A; experiment: CCK-8 antiproliferative assay, C-33A; conditions: read-out: IC50 C-33A
Procedure: as §1, §2

[5] = test system: SLC7A11; experiment: Western blot, SLC7A11 expression in HeLa cells; conditions: Fer-1 5 μmol/L cotreated with B1, HeLa
[6] = test system: HeLa cells; experiment: MDA assay kit; conditions: Fer-1 5 μmol/L cotreated with 0.22 μmol/L B1, HeLa
Procedure: MDA levels in HeLa cells were detected using an MDA assay kit ([Tsikas et al., 2017]).
After 24 h of treatment, cells were collected and washed twice with PBS for subsequent analysis.

[7] = test system: HeLa cells; experiment: Fe2+ assay kit; conditions: Fer-1 5 μmol/L cotreated with 0.22 μmol/L B1, HeLa
Procedure: Intracellular ferrous iron (Fe^2+) levels in HeLa cells were measured using an Fe^2+ assay kit.
(§3) After 24 h of treatment, cells were collected and washed twice with PBS for subsequent analysis. […] Subsequent procedures were performed strictly according to the manufacturer’s instructions of the respective kits: MDA assay kit (Servicebio, Cat# GM1134), Fe^2+ colorimetric assay kit (Servicebio, Cat# GM3052), and reduced GSH assay kit (Servicebio, Cat# GM1139).

[8] = test system: HeLa cells; experiment: GSH assay kit; conditions: Fer-1 5 μmol/L cotreated with 0.22 μmol/L B1, HeLa
Procedure: Intracellular GSH levels were measured using a GSH assay kit.
as §3

[9] = test system: GPX4; experiment: Western blot, GPX4 expression in HeLa cells; conditions: Fer-1 5 μmol/L cotreated with B1, HeLa
[10] = Homo sapiens, HeLa, 48 h, read-out: IC50 HeLa
[11] = CCK-8, 48 h, normal cells, Table 1
[12] = CCK-8, 48 h, Table 1, read-out: IC50 HeLa
[13] = Homo sapiens, SiHa, CCK-8, 48 h, Table 1
[14] = Epithelial cell, CCK-8, 48 h, normal cells, Table 1
[15] = Homo sapiens, HeLa, CCK-8, 48 h, Table 1, read-out: IC50 HeLa
[16] = Homo sapiens, C-33-A, CCK-8, 48 h, Table 1

O=C(/C=C/c1ccc(N2CCCC2)cc1)c1ccc(OC(F)(F)F)cc1 [Compound B7]
IC50 ([1]; Homo sapiens, SiHa, 48 h): > 100 µM
IC50 ([2]; Epithelial cell, 48 h): > 100 µM
IC50 [3, 10]: > 100 µM
IC50 ([4]; Homo sapiens, C-33-A, 48 h): > 100 µM

COc1ccc(F)cc1/C=C/C(=O)c1ccc(N2CCCC2)cc1 [Compound D1]
IC50 ([1]; Homo sapiens, SiHa, 48 h): 5.44 ± 0.23 µM
IC50 ([2]; Epithelial cell, 48 h): 19.2 ± 1.08 µM
IC50 [3, 10]: 5.25 ± 0.1 µM
IC50 ([4]; Homo sapiens, C-33-A, 48 h): 20.9 ± 1.03 µM

O=C(/C=C/c1ccccc1OC(F)(F)F)c1ccc(N2CCCC2)cc1 [Compound D4]
IC50 ([1]; Homo sapiens, SiHa, 48 h): 9.28 ± 0.33 µM
IC50 ([2]; Epithelial cell, 48 h): > 100 µM
IC50 [3, 10]: 4.09 ± 0.24 µM
IC50 ([4]; Homo sapiens, C-33-A, 48 h): 33 ± 2.38 µM

COc1ccccc1C(=O)/C=C/c1ccc(N2CCCC2)cc1 [Compound A1]
IC50 ([1]; Homo sapiens, SiHa, 48 h): 2.93 ± 0.21 µM
IC50 ([2]; Epithelial cell, 48 h): 61.3 ± 1.34 µM
toxicity to H8 cells in words [2]: low toxicity
IC50 [3, 10]: 3.04 ± 0.03 µM
IC50 ([4]; Homo sapiens, C-33-A, 48 h): 4.79 ± 0.19 µM

CCOC(=O)c1ccc(NC2CCCCC2)c(N)c1 [Ferrostatin-1, ferrostatin-1]
SLC7A11 protein expression level on cotreatment [5]: increased
MDA levels on cotreatment [6]: reduced
Fe^2+ levels on cotreatment [7]: reduced
intracellular GSH levels on cotreatment [8]: increased
GPX4 protein expression level on cotreatment [9]: increased

N.N.[Cl][Pt][Cl] [Cisplatin, reference compound]
IC50 ([1]; CCK-8, 48 h, Table 1): 37 ± 1.54 µM
IC50 [2, 11]: 25.6 ± 1.32 µM
IC50 [3, 12]: 18.23 ± 0.11 µM
IC50 ([4]; CCK-8, 48 h, Table 1): 12.7 ± 1.09 µM

O=C(/C=C/c1ccc(N2CCCC2)cc1)c1ccc(Cl)c(Cl)c1Cl [Compound A9]
IC50 [1, 13]: 90.5 ± 3.38 µM
IC50 [2, 14]: > 100 µM
IC50 [3, 15]: > 100 µM
IC50 [4, 16]: > 100 µM

O=C(/C=C/c1ccccc1)c1ccccc1 [Chalcone, reference compound]
IC50 [1, 13]: 69.7 ± 1.67 µM
IC50 [2, 14]: 38.6 ± 1.64 µM
IC50 [3, 15]: 63.9 ± 2.85 µM
IC50 [4, 16]: 58.7 ± 1.05 µM

COc1cccc(OC)c1C(=O)/C=C/c1ccc(N2CCCC2)cc1 [Compound A3]
IC50 ([1]; Homo sapiens, SiHa, 48 h): 64.44 ± 0.57 µM
IC50 ([2]; Epithelial cell, 48 h): > 100 µM
IC50 [3, 10]: 31.5 ± 1.46 µM
IC50 ([4]; Homo sapiens, C-33-A, 48 h): > 100 µM

COc1ccc(Cl)cc1/C=C/C(=O)c1ccc(N2CCCC2)cc1 [Compound D3]
IC50 ([1]; Homo sapiens, SiHa, 48 h): 10.9 ± 0.38 µM
IC50 ([2]; Epithelial cell, 48 h): 22.6 ± 0.32 µM
IC50 [3, 10]: 8.17 ± 0.46 µM
IC50 ([4]; Homo sapiens, C-33-A, 48 h): 34.2 ± 1.3 µM

O=C(/C=C/c1ccc(N2CCCC2)cc1)c1cccc(OC(F)(F)F)c1 [Compound B6]
IC50 ([1]; Homo sapiens, SiHa, 48 h): 49.5 ± 1.4 µM
IC50 ([2]; Epithelial cell, 48 h): > 100 µM
IC50 [3, 10]: > 100 µM
IC50 ([4]; Homo sapiens, C-33-A, 48 h): > 100 µM

Cc1cccc(C(=O)/C=C/c2ccc(N3CCCC3)cc2)c1 [Compound A7]
IC50 ([1]; Homo sapiens, SiHa, 48 h): 16.41 ± 0.13 µM
IC50 ([2]; Epithelial cell, 48 h): 91.6 ± 3.28 µM
IC50 [3, 10]: 27.6 ± 2.23 µM
IC50 ([4]; Homo sapiens, C-33-A, 48 h): 37.2 ± 0.19 µM

O=C(/C=C/c1ccc(N2CCCC2)cc1)c1ccccc1C(F)(F)F [Compound A5]
IC50 ([1]; Homo sapiens, SiHa, 48 h): 38 ± 0.74 µM
IC50 ([2]; Epithelial cell, 48 h): 78.7 ± 1.41 µM
IC50 [3, 10]: 13.6 ± 0.26 µM
IC50 ([4]; Homo sapiens, C-33-A, 48 h): 36.69 ± 0.22 µM

COc1ccc(Br)cc1C(=O)/C=C/c1ccc(N2CCCC2)cc1 [Compound B2]
IC50 ([1]; Homo sapiens, SiHa, 48 h): 1.35 ± 0.13 µM
IC50 ([2]; Epithelial cell, 48 h): 56.8 ± 0.75 µM
IC50 [3, 10]: 1.09 ± 0.05 µM
IC50 ([4]; Homo sapiens, C-33-A, 48 h): 4.4 ± 0.11 µM

O=C(/C=C/c1cccc(OC(F)(F)F)c1)c1ccc(N2CCCC2)cc1 [Compound D5]
IC50 ([1]; Homo sapiens, SiHa, 48 h): 44.4 ± 1.64 µM
IC50 ([2]; Epithelial cell, 48 h): > 100 µM
IC50 [3, 10]: 32 ± 1.28 µM
IC50 ([4]; Homo sapiens, C-33-A, 48 h): > 100 µM

CCOc1ccccc1-n1c(C(C)N2CCN(C(=O)COc3ccc(Cl)cc3)CC2)nc2ccccc2c1=O (stereo not shown) [Erastin, reference compound]
IC50 ([3]; Homo sapiens, HeLa, CCK-8, Table 3, ferroptosis inducer/inhibitor comparison, read-out: IC50 HeLa): 17.2 ± 0.53 µM

O=C(/C=C/c1ccc(N2CCCC2)cc1)c1ccccc1OC(F)(F)F [Compound B5]
IC50 ([1]; Homo sapiens, SiHa, 48 h): 0.91 ± 0.03 µM
IC50 ([2]; Epithelial cell, 48 h): 76.9 ± 3.87 µM
IC50 [3, 10]: 0.9 ± 0.02 µM
IC50 ([4]; Homo sapiens, C-33-A, 48 h): 5.93 ± 0.07 µM

O=C(/C=C/c1ccc(N2CCCC2)cc1)c1ccc(C(F)(F)F)cc1 [Compound A8]
IC50 ([1]; Homo sapiens, SiHa, 48 h): > 100 µM
IC50 ([2]; Epithelial cell, 48 h): > 100 µM
IC50 [3, 10]: > 100 µM
IC50 ([4]; Homo sapiens, C-33-A, 48 h): > 100 µM

O=C(/C=C/c1ccc(N2CCCC2)cc1)c1cccc(C(F)(F)F)c1 [Compound A6]
IC50 ([1]; Homo sapiens, SiHa, 48 h): 34.5 ± 0.59 µM
IC50 ([2]; Epithelial cell, 48 h): 86.4 ± 3.17 µM
IC50 ([3]; Homo sapiens, HeLa): > 100 µM
IC50 [3, 10]: 31.8 ± 1.45 µM
IC50 ([4]; Homo sapiens, C-33-A, 48 h): 35.1 ± 0.37 µM

COc1ccc(Br)cc1/C=C/C(=O)c1ccc(N2CCCC2)cc1 [Compound D2]
IC50 ([1]; Homo sapiens, SiHa, 48 h): 11.55 ± 0.06 µM
IC50 ([2]; Epithelial cell, 48 h): 40 ± 0.55 µM
IC50 [3, 10]: 10.8 ± 0.37 µM
IC50 ([4]; Homo sapiens, C-33-A, 48 h): 49.8 ± 2.93 µM

COc1ccc(F)cc1C(=O)/C=C/c1ccc(N2CCCC2)cc1 [Compound B1]
IC50 ([1]; Homo sapiens, SiHa, 48 h): 0.24 ± 0.03 µM
IC50 ([1]; Homo sapiens, SiHa): ~0.24 µM
IC50 ([2]; Epithelial cell, 48 h): 45.8 ± 1.61 µM
toxicity to H8 cells in words [2]: low toxicity
IC50 [3, 10]: 0.22 ± 0.01 µM
IC50 ([3]; Homo sapiens, HeLa, read-out: IC50 HeLa): ~0.22 µM
IC50 ([4]; Homo sapiens, C-33-A, 48 h): 0.95 ± 0.02 µM

COc1ccc(C(=O)/C=C/c2ccc(N3CCCC3)cc2)c(OC)c1OC [Compound A4]
IC50 ([1]; Homo sapiens, SiHa, 48 h): 7.78 ± 0.24 µM
IC50 ([2]; Epithelial cell, 48 h): 81 ± 1.03 µM
IC50 [3, 10]: 15.7 ± 0.38 µM
IC50 ([4]; Homo sapiens, C-33-A, 48 h): 21.3 ± 1.02 µM

COc1ccc(Cl)cc1C(=O)/C=C/c1ccc(N2CCCC2)cc1 [Compound B3]
IC50 ([1]; Homo sapiens, SiHa, 48 h): 2.17 ± 0.02 µM
IC50 ([2]; Epithelial cell, 48 h): 57 ± 2.47 µM
IC50 [3, 10]: 1.59 ± 0.08 µM
IC50 ([4]; Homo sapiens, C-33-A, 48 h): 4.29 ± 0.15 µM

COc1ccc(OC)c(C(=O)/C=C/c2ccc(N3CCCC3)cc2)c1 [Compound C1]
IC50 ([1]; Homo sapiens, SiHa, 48 h): 9.92 ± 0.67 µM
IC50 ([2]; Epithelial cell, 48 h): 27.2 ± 2.33 µM
IC50 ([3]; Homo sapiens, HeLa): 27.1 µM
IC50 [3, 10]: 9.3 ± 0.57 µM
IC50 ([4]; Homo sapiens, C-33-A, 48 h): 13.8 ± 0.45 µM

COc1ccc(C2=N[C@@H](c3ccc(Cl)cc3)[C@@H](c3ccc(Cl)cc3)N2C(=O)N2CCNC(=O)C2)c(OC(C)C)c1 [Nutlin-3a, reference compound]
IC50 ([1]; CCK-8, 48 h, Table 1): 56.6 ± 2.2 µM
IC50 [2, 11]: 45.5 ± 2.11 µM
IC50 [3, 12]: 61.3 ± 1.42 µM
IC50 ([4]; CCK-8, 48 h, Table 1): 57 ± 2.81 µM

O=C(/C=C/c1ccc(OC(F)(F)F)cc1)c1ccc(N2CCCC2)cc1 [Compound D6]
IC50 ([1]; Homo sapiens, SiHa, 48 h): 77.3 ± 2.13 µM
IC50 ([2]; Epithelial cell, 48 h): > 100 µM
IC50 [3, 10]: > 100 µM
IC50 ([4]; Homo sapiens, C-33-A, 48 h): > 100 µM

COc1ccc(C(=O)/C=C/c2ccc(N3CCCC3)cc2)c(OC)c1 [Compound A2]
IC50 ([1]; Homo sapiens, SiHa, 48 h): 18.3 ± 0.73 µM
IC50 ([2]; Epithelial cell, 48 h): 74 ± 1.05 µM
IC50 [3, 10]: 16.7 ± 0.65 µM
IC50 ([4]; Homo sapiens, C-33-A, 48 h): 17.9 ± 0.55 µM

COc1ccccc1C(=O)/C(C)=C/c1ccc(N2CCCC2)cc1 [Compound B4]
IC50 [1, 13]: 44.7 ± 0.78 µM
IC50 [2, 14]: > 100 µM
IC50 [3, 15]: 84.8 ± 2.69 µM
IC50 [4, 16]: > 100 µM

O=C(/C=C/c1ccc(N2CCCC2)cc1)c1cc(F)ccc1F [Compound C2]
IC50 ([1]; Homo sapiens, SiHa, 48 h): 26.4 ± 1.11 µM
IC50 ([2]; Epithelial cell, 48 h): 35.1 ± 0.95 µM
IC50 ([3]; Homo sapiens, HeLa): 9.3 µM
IC50 [3, 10]: 27.1 ± 0.59 µM
IC50 ([4]; Homo sapiens, C-33-A, 48 h): 44.1 ± 1.99 µM
